In patent publication US10941187B2 (The United States of America, as represented by the …, priority 2001, dated 2021):

What was measured:
Beta-2/NeuroD = Beta-2/NeuroD expression in PC12 cells (Western blot); format: cell-based, rat; settings: PC12 cell lysates
From the text: Beta-2/NeuroD plays a major role in both neuronal and pancreatic endocrine development. […] Beta-2 expression in pancreatic endocrine cells, the intestine and the brain, activates insulin gene transcription and can induce neurons to differentiate. Mutant mice lacking the functional Beta-2 gene have a striking reduction in the number of insulin-producing beta cells, fail to develop mature islets and as a consequence develop severe diabetes often resulting in perinatal death (Naya et al 1997). Thus, Beta-2/NeuroD is essential for in vivo pancreatic development and neuronal differentiation.
NeuroD production was determined by Western blot analysis using anti-NeuroD antibody as described above for synaptophysin antibody, except peroxidase-linked anti-goat IgG (Santa Cruz Biotechnology Inc.) was used as the secondary antibody. […] Indeed, Noma et al (1999) have shown that overexpression of NeuroD in transfected PC12 cells induced morphological changes such as neurite-like processes and synapse-like structures, without a differentiating-inducing agent such as NGF.

Aβ1-40 [1] = experiment: Aβ1-40 sandwich ELISA of PC12 conditioned media; format: cell-based, rat; settings: PC12 cells, relative to control cells
Fischer-344 rats = experiment: Ibotenic acid induced cholinergic marker deficit, i.c.v. infusion
[2] = tested on: β-amyloid precursor protein (βAPP); experiment: Western immunoblot of βAPP (cell lysates) and sAPP (conditioned media) in PC12 cells; settings: day 3, relative to untreated
synaptophysin = experiment: Synaptophysin expression in PC12 cells (Western blot); format: cell-based, rat; settings: PC12 cell lysates, relative to untreated
Experimental: The synaptophysin monoclonal antibody (Oncogene Research Products, San Diego Calif.), which stains neurosecretory vesicles of PC12 cells, was used. The membranes were blocked with 20 mM Tris, 500 mM NaCl pH 7.4, 1% (w/v) casein (BioRad, San Diego Calif.) at 37° C. for 1 hour. Primary antibody was diluted in block and incubated with the proteins overnight at 4° C. The membrane was vigorously washed with 20 mM Tris pH 7.4, 150 mM NaCl and 0.05% Tween-20 (TBST), three times for 15 minutes at room temperature. The peroxidase-linked secondary antibody in block was incubated with the membrane for 2 hours at room temperature. Peroxidase-linked anti-mouse IgM (Chemicon, Tenecula, Calif.) was used as the secondary antibody against synaptophysin. Excess antibody was washed off with three vigorous washes in TBST prior to incubation in ECL Plus (Amersham, Philadelphia, Pa.) for 5 minutes. The membrane was subsequently exposed to photographic film.

[3] = tested on: cultured hippocampal cells; experiment: Survival of hippocampal neurons exposed to Aβ1-42 or Fe2+; format: cell-based, rat; settings: 2 h pretreatment, then 2 μM Aβ (1-42) or 1 μM Fe2+ for 24 hours
Experimental: Hippocampi were removed from embryonic day 18 Sprague-Dawley rats, and cells were dissociated by mild trypsination and trituration and seeded onto polyethyleneimine-coated plastic 35 mm diameter dishes at a density of approximately 150 cells/mm^2 of culture surface. Cultures-were maintained in Neurobasal medium containing B-27 supplements (Gibco BRL, Carlsbad, Calif.), 2 mM L-glutamine, 1 mM Hepes and 0.001% gentamicin sulfate (Sigma, St. Louis, Mo.) in a 6% CO2/94% room air atmosphere at 37° C. When maintained under these conditions, the hippocampal cultures consisted of approximately 95% neurons and 5% astrocytes as determined by immunostaining with antibodies against the neuronal antigen NeuN and the astrocyte protein glial fibrillary acidic protein. Aβ1-42 was purchased from Bachem (Torrance, Calif.) and was prepared as a 1 mM stock solution in sterile water. FeSO4 was prepared as a 200 μM stock in sterile water.
Neuronal survival was quantified as described previously (Mark et. al., 1997). Briefly, viable neurons in premarked fields (10× objective) were counted before experimental treatment and at specified time points thereafter. […] Cultures were then exposed to 2 μM Aβ (1-42) or 1 μM Fe^2+ for 24 hours. […]

Aβ1-40 [4] = experiment: Aβ1-40 in whole brain homogenates after i.c.v. infusion in control mice; format: in vivo, mouse; settings: 48 h
Experimental: Lean db+/db+ control male mice (n=24) were anaesthetized with 50 mg/kg pentobarbitone and placed in a stereotaxic surgical frame with mouse adaptor (David Kopf Instruments, Tujunga, Calif.) using temporal bone cup holders. […] After 48 h all animals were sacrificed by cervical dislocation, the brains removed and rapidly frozen in liquid nitrogen. Brains were pulverized and stored at −80° C. prior to assaying for Aβ levels.
Equivalent volumes of conditioned media and whole brain homogenate were assayed for Aβ1-40 using a sandwich ELISA (Suzuki et. al., 1994). The monoclonal antibody BAN50 (raised against Aβ1-16) was used as the capture antibody for all species of Aβ (Aβ1-40 and Aβ1-42), and the monoclonal antibody BA27 was used to specifically detect Aβ1-40 levels. Levels of Aβ1-40 were expressed in pM concentrations for conditioned media samples and finol/g for the mouse brain homogenates, as deduced from the appropriate standard curve run in parallel with the assay.

[5] = tested on: cultured hippocampal neurons; experiment: Glutamate-induced apoptotic cell death in hippocampal neurons (Hoechst 33342); format: cell-based, rat; settings: GLP-1 10 nM
Experimental: The fluorescent DNA binding dye Hoescht 33342 was used to measure apoptotic cell death. […] Cells were fixed in a solution of 4% paraformaldehyde in PBS and membranes were permeabilized with 0.2% Trition X-100. Following incubation with Hoechst 33342 (1 μM) for 30 min, nuclei were visualized under epifluorescence illumination (340 nm excitation, 510 nm barrier filter) using a 40× oil-immersion objective. Approximately 200 cells were counted in at least three separate dishes for each treatment condition, and experiments were repeated at least twice. Cells were considered apoptotic if nuclear DNA was fragmented or condensed, whereas cells with nuclear DNA of a more diffuse and uniform distribution, were considered viable. At the time of counting, the investigator was unaware of the identity of the treatment groups. The percentage of cells with condensed or fragmented nuclei was determined in each culture.

[6] = Stability in human serum by MALDI mass spectrometry; format: in vitro ADME; settings: 100% serum, 2 h at 37° C.
Experimental: Both compounds (100 μM, 100 μl ) were incubated in an equivalent volume of human serum at 37° C. for 2 h. In all cases, enzymatic reactions were quenched by the addition of trifluoroacetic acid (0.1% v/v final concentration). Samples were immediately analyzed using Matrix Assisted […] Desorption Ionisation-Time Of Flight (MALDI-TOF) mass spectrometry. A Micromass MALDI-TOF (Micromass, Beverly, Mass.) reflectron instrument was used at a laser energy of 15-25% over a mass range of 1000-6000 Da, with 5 laser shots summed per spectrum. Alpha-cyano-4-hydroxycinnamicacid (Sigma, St. Louis, Mo.) was used as a matrix and was prepared to a concentration of 10 mg/ml in a 8 mg/ml ammonium carbonate (Sigma, St. Louis, Mo.) buffer. One microlitre samples were diluted 50/50 v/v with matrix before being transferred to the MALDI plate.

PC12 cells = experiment: Neurite outgrowth in PC12 cells; format: cell-based, rat; settings: low serum medium
Experimental: Three dishes for each treatment condition were prepared. Treatments began 24 hours after seeding, once cells were well attached.
PC12 cells were grown on 60 mm dishes as above and cultured for four days. During this time neurite outgrowth was quantified daily. Five random fields of cells were evaluated per dish and the proportion of neurite-bearing cells was determined. Approximately 100 cells per field were scored for neurites equal to or greater in length than that of the cell body. A cell was only scored once, although it may have had more than one process per cell.

SMILES: CC[C@H](C)[C@H](NC(=O)[C@H](Cc1ccccc1)NC(=O)[C@H](CCC(=O)O)NC(=O)[C@H](CCCCN)NC(=O)[C@H](C)NC(=O)[C@H](C)NC(=O)[C@H](CCC(N)=O)NC(=O)CNC(=O)[C@H](CCC(=O)O)NC(=O)[C@H](CC(C)C)NC(=O)[C@H](Cc1ccc(O)cc1)NC(=O)[C@H](CO)NC(=O)[C@H](CO)NC(=O)[C@@H](NC(=O)[C@H](CC(=O)O)NC(=O)[C@H](CO)NC(=O)[C@@H](NC(=O)[C@H](Cc1ccccc1)NC(=O)[C@@H](NC(=O)CNC(=O)[C@H](CCC(=O)O)NC(=O)[C@H](C)NC(=O)[C@@H](N)Cc1c[nH]cn1)[C@@H](C)O)[C@@H](C)O)C(C)C)C(=O)N[C@@H](C)C(=O)N[C@@H](Cc1c[nH]c2ccccc12)C(=O)N[C@@H](CC(C)C)C(=O)N[C@H](C(=O)N[C@@H](CCCCN)C(=O)NCC(=O)N[C@@H](CCCNC(=N)N)C(N)=O)C(C)C [GLP-1, glucagon-like peptide-1]
- Beta-2/NeuroD expression (43 kDa band) (Beta-2/NeuroD): increased following GLP-1 treatment
- Aβ1-40 levels in conditioned media (Aβ1-40 [1]): did not significantly alter levels of Aβ1-40 production
- Abercrombie corrected ChAT-positive cell counts, Left basal nucleus (lesion side) (Fischer-344 rats; Lesion (ibotenic acid)): 404 ± 59
- Abercrombie corrected ChAT-positive cell counts, Right basal nucleus (infusion side) (Fischer-344 rats; Lesion (ibotenic acid)): 423 ± 45
- Abercrombie corrected ChAT-positive cell counts, Left basal nucleus (lesion side) (Fischer-344 rats; Sham): 517 ± 50
- Abercrombie corrected ChAT-positive cell counts, Right basal nucleus (infusion side) (Fischer-344 rats; Sham): 499 ± 41
- food and water intake, body weight during infusion (Fischer-344 rats; i.c.v. minipump infusion): modestly aphagic and adipsic
- loss of ChAT-immunoreactive cell bodies in left basal nucleus below that of the right basal nucleus (Fischer-344 rats; ibotenic acid lesion, 14 days i.c.v. infusion (vehicle 43%)): 6%
- intracellular levels of βAPP (cell lysates) [2]: significantly decreased intracellular levels of βAPP
- synaptophysin expression (synaptophysin): dramatically reduced the expression of the synaptophysin protein
- concentration of maximum protective effect against death induced by Aβ1-42 and Fe2+ [3]: 10 nM
- reduction of Aβ1-40 levels compared to vehicle (Aβ1-40 [4]; 3.3 μg GLP-1 i.c.v., not significant): 16%
- reduction of Aβ1-40 levels compared to vehicle (Aβ1-40 [4]; 6.6 μg GLP-1 i.c.v., p<0.01): 36%
- apoptotic cells, concurrent treatment with glutamate ([5]; 10 μM glutamate overnight, exendin-4 0.3 μM (medium alone 23%, glutamate 73%)): 24%
- protection against apoptotic effects of glutamate ([5]; 10 μM glutamate, exendin-4 0.3 μM): completely protected
- apoptotic cells, peptide alone ([5]; exendin-4 0.3 μM, no glutamate): 20%
- stability in human serum (N-terminal truncated product by MALDI) [6]: considerable increase in the amount of N-terminal truncated product
- differentiation / neurite outgrowth (PC12 cells): produced similar effects on differentiation to those induced by NGF
